Source: US9944598B2, “Mono- or di-substituted indole derivatives as dengue viral replication inhibitors” (priority 2014, dated 2018)

Legend:
in vitro = assay type: cell-based; conditions: African green monkey, CC50
Experimental: (§1) In parallel, the toxicity of the compounds was assessed on the same plates. Once the read-out for the eGFP signal was done, 10 μL of resazurin, a cell viability stain, was added to all wells of the 384-well plates. The resazurin assay is based on the reduction of the blue resazurin by NADH, produced by the cells, into the highly fluorescent product, resorufin. The formation of pink fluorescent resorufin is directly related to the number of viable cells in the well. The plates were incubated for an additional 5 hours in a fully humidified incubator (37° C., 5% CO2). Next, the plates were measured on an Infinite reader (Tecan) using an excitation wavelength of 530 nm. The half maximal cytotoxic concentration (CC50) was also determined, defined as the concentration required to reduce the resazurin conversion by 50% compared to that of the cell control wells (Table 1). Finally, the selectivity index (SI) is determined for the compounds, which is calculated as followed: SI=CC50/EC50.

[1] = test system: DENV-2 16681 strain labeled with eGFP; assay: DENV-2 antiviral assay (eGFP fluorescence, Vero cells); assay type: cell-based, Dengue virus; conditions: DENV-2 16681 eGFP, MOI 0.5, 3 days
Experimental: The antiviral activity of all the compounds of the invention was tested against DENV-2 16681 strain which was labeled with enhanced green fluorescent protein (eGPF). The culture medium consists of minimal essential medium supplemented with 2% of heat-inactivated fetal calf serum, 0.04% gentamycin (50 mg/mL) and 2 mM of L-glutamine. Vero cells, obtained from ECACC, were suspended in culture medium and 25 μL was added to 384-well plates (2500 cells/well), which already contain the antiviral compounds. Typically, these plates contain a 4-fold serial dilution of 9 dilution steps of the test compound at 200 times the final concentration in 100% DMSO (200 nL). In addition, each compound concentration is tested in quadruplicate (final concentration range: 25 μM-0.00038 μM). Finally, each plate contains wells which are assigned as virus controls (containing cells and virus in the absence of compound), cell controls (containing cells in the absence of virus and compound) and medium controls (containing medium in the absence of cells, virus and compounds). To the wells assigned as medium control, 25 μL of culture medium was added instead of Vero cells. Once the cells were added to the plates, the plates were incubated for 30 minutes at room temperature to allow the cells to distribute evenly within the wells. Next, the plates were incubated in a fully humidified incubator (37° C., 5% CO2) until the next day. Then, DENV-2 strain 16681, labeled with eGFP, was added at a multiplicity of infection (MOI) of 0.5. Therefore, 15 μL of virus suspension was added to all the wells containing test compound and to the wells assigned as virus control. In parallel, 15 μL of culture medium was added to the medium and cell controls. Next, the plates were incubated for 3 days in a fully humidified incubator (37° C., 5% CO2). At the day of the read out, the eGFP fluorescence was measured using an automated fluorescence microscope at 488 nm (blue laser). Using an in-house LIMS system, inhibition dose response curves for each compound were calculated and the half maximal effective concentration (EC50) was determined. Therefore, the percent inhibition (I) for every test concentration is calculated using the following formula: I=100*(ST−SCC)/(SVC−SCC); ST, SCC and SVC are the amount of eGFP signal in the test compound, cell control and virus control wells, respectively. The EC50 represents the concentration of a compound at which the virus replication is inhibited with 50%, as measured by a 50% reduction of the eGFP fluorescent intensity compared to the virus control. The EC50 is calculated using linear interpolation (Table 1).

Vero cells = assay: in vitro; assay type: cell-based; conditions: African green monkey
Experimental: as §1

[2] = Dengue virus, DENV2, Vero, 72 h

Compound | CC50 (in vitro) [µM] | EC50 [1, 2] [µM] | CC50 (Vero cells) [µM] | EC50 [1] [µM] | melting point [°C]
COc1cc(NC(C(=O)c2c[nH]c3cc(OC)ccc23)c2ccc(Cl)cc2OC)cc(OCCO)c1 (racemic) [Compound 5, 2-(4-chloro-2-methoxyphenyl)-2-((3-(2-hydroxyethoxy)-5-methoxyphenyl)amino)-1-(6-methoxy-1H-indol-3-yl)ethanone] | 6.5 | 0.0023 | – | – | –
COc1cc(NC(C(=O)c2c[nH]c3c(F)cc(C)cc23)c2ccc(Cl)cc2OC)cc(OCCO)c1 (single isomer, unassigned) [Compound 10B, 2-(4-chloro-2-methoxyphenyl)-1-(7-fluoro-5-methyl-1H-indol-3-yl)-2-((3-(2-hydroxyethoxy)-5-methoxyphenyl)amino)ethanone] | – | – | 3.8 | 0.19 | –
COc1cc(NC(C(=O)c2c[nH]c3c(F)c(F)ccc23)c2ccc(Cl)cc2OC)cc(OCCO)c1 (single isomer, unassigned) [Compound 11A, 2-(4-chloro-2-methoxyphenyl)-1-(6,7-difluoro-1H-indol-3-yl)-2-((3-(2-hydroxyethoxy)-5-methoxyphenyl)amino)ethanone] | 6.5 | – | – | 0.09 | –
COc1cc(NC(C(=O)c2c[nH]c3cc(OC)c(F)cc23)c2ccc(Cl)cc2OC)cc(OCCO)c1 (single isomer, unassigned) [Compound 7B, 2-(4-chloro-2-methoxyphenyl)-1-(5-fluoro-6-methoxy-1H-indol-3-yl)-2-((3-(2-hydroxyethoxy)-5-methoxyphenyl)amino)ethanone] | – | – | 7.8 | 0.069 | –
COc1cc(NC(C(=O)c2c[nH]c3cc(OC)ccc23)c2ccc(Cl)cc2OC)cc(OCCO)c1 (single isomer, unassigned) [Compound 5B, 2-(4-chloro-2-methoxyphenyl)-2-((3-(2-hydroxyethoxy)-5-methoxyphenyl)amino)-1-(6-methoxy-1H-indol-3-yl)ethanone] | – | – | 8.1 | 0.4 | –
COc1cc(NC(C(=O)c2c[nH]c3cc(F)ccc23)c2ccc(Cl)cc2OC)cc(OCCO)c1 (single isomer, unassigned) [Compound 1B, 2-(4-chloro-2-methoxyphenyl)-1-(6-fluoro-1H-indol-3-yl)-2-((3-(2-hydroxyethoxy)-5-methoxyphenyl)amino)ethanone] | – | – | 6.3 | 0.14 | –
COc1cc(NC(C(=O)c2c[nH]c3cc(F)ccc23)c2ccc(Cl)cc2OC)cc(OCCO)c1 (racemic) [Compound 1, 2-(4-chloro-2-methoxyphenyl)-1-(6-fluoro-1H-indol-3-yl)-2-((3-(2-hydroxyethoxy)-5-methoxyphenyl)amino)ethanone] | 6.2 | 0.003 | – | – | –
COc1cc(NC(C(=O)c2c[nH]c3cc(F)c(F)cc23)c2ccc(Cl)cc2OC)cc(OCCO)c1 (racemic) [Compound 9, 2-(4-chloro-2-methoxyphenyl)-1-(5,6-difluoro-1H-indol-3-yl)-2-((3-(2-hydroxyethoxy)-5-methoxyphenyl)amino)ethanone] | 7.3 | 0.0022 | – | – | –
COc1cc(NC(C(=O)c2c[nH]c3cc(OC)c(F)cc23)c2ccc(Cl)cc2OC)cc(OCCO)c1 (racemic) [Compound 7, 2-(4-chloro-2-methoxyphenyl)-1-(5-fluoro-6-methoxy-1H-indol-3-yl)-2-((3-(2-hydroxyethoxy)-5-methoxyphenyl)amino)ethanone] | 7.4 | 0.0026 | – | – | –
COc1cc(NC(C(=O)c2c[nH]c3cc(Cl)ccc23)c2ccc(Cl)cc2OC)cc(OCCO)c1 (racemic) [Compound 4, 1-(6-chloro-1H-indol-3-yl)-2-(4-chloro-2-methoxyphenyl)-2-((3-(2-hydroxyethoxy)-5-methoxyphenyl)amino)ethanone] | 6.3 | 0.0014 | – | – | 154
COc1cc(NC(C(=O)c2c[nH]c3c(C)c(Cl)ccc23)c2ccc(Cl)cc2OC)cc(OCCO)c1 (racemic) [Compound 3, 2-(4-chloro-2-methoxyphenyl)-1-(6-chloro-7-methyl-1H-indol-3-yl)-2-((3-(2-hydroxyethoxy)-5-methoxyphenyl)amino)ethanone] | 5.5 | 0.00072 | – | – | 220
COc1cc(NC(C(=O)c2c[nH]c3cc(Cl)ccc23)c2ccc(Cl)cc2OC)cc(OCCO)c1 (single isomer, unassigned) [Compound 4B, 1-(6-chloro-1H-indol-3-yl)-2-(4-chloro-2-methoxyphenyl)-2-((3-(2-hydroxyethoxy)-5-methoxyphenyl)amino)ethanone] | – | – | 7.4 | 0.045 | –
COc1cc(NC(C(=O)c2c[nH]c3c(C)cc(F)cc23)c2ccc(Cl)cc2OC)cc(OCCO)c1 (single isomer, unassigned) [Compound 8B, 2-(4-chloro-2-methoxyphenyl)-1-(5-fluoro-7-methyl-1H-indol-3-yl)-2-((3-(2-hydroxyethoxy)-5-methoxyphenyl)amino)ethanone] | – | – | 5.7 | 0.26 | –
COc1cc(NC(C(=O)c2c[nH]c3c(C)c(F)ccc23)c2ccc(Cl)cc2OC)cc(OCCO)c1 (single isomer, unassigned) [Compound 2B, 2-(4-chloro-2-methoxyphenyl)-1-(6-fluoro-7-methyl-1H-indol-3-yl)-2-((3-(2-hydroxyethoxy)-5-methoxyphenyl)amino)ethanone] | – | – | 6.2 | 0.081 | –
COc1cc(NC(C(=O)c2c[nH]c3c(F)cc(C)cc23)c2ccc(Cl)cc2OC)cc(OCCO)c1 (stereo not drawn) [Compound 10, 2-(4-chloro-2-methoxyphenyl)-1-(7-fluoro-5-methyl-1H-indol-3-yl)-2-((3-(2-hydroxyethoxy)-5-methoxyphenyl)amino)ethanone] | 5.8 | 0.0075 | – | – | –
COc1cc(NC(C(=O)c2c[nH]c3cc(OC)c(C)cc23)c2ccc(Cl)cc2OC)cc(OCCO)c1 (racemic) [Compound 6, 2-(4-chloro-2-methoxyphenyl)-2-((3-(2-hydroxyethoxy)-5-methoxyphenyl)amino)-1-(6-methoxy-5-methyl-1H-indol-3-yl)ethanone] | 5.6 | 0.0012 | – | – | –
COc1cc(NC(C(=O)c2c[nH]c3c(C)cc(F)cc23)c2ccc(Cl)cc2OC)cc(OCCO)c1 (racemic) [Compound 8, 2-(4-chloro-2-methoxyphenyl)-1-(5-fluoro-7-methyl-1H-indol-3-yl)-2-((3-(2-hydroxyethoxy)-5-methoxyphenyl)amino)ethanone] | 8 | 0.0024 | – | – | –
COc1cc(NC(C(=O)c2c[nH]c3c(C)c(Cl)ccc23)c2ccc(Cl)cc2OC)cc(OCCO)c1 (single isomer, unassigned) [Compound 3B, 2-(4-chloro-2-methoxyphenyl)-1-(6-chloro-7-methyl-1H-indol-3-yl)-2-((3-(2-hydroxyethoxy)-5-methoxyphenyl)amino)ethanone] | – | – | 7.1 | 0.045 | –
COc1cc(NC(C(=O)c2c[nH]c3cc(OC)c(C)cc23)c2ccc(Cl)cc2OC)cc(OCCO)c1 (single isomer, unassigned) [Compound 6B, 2-(4-chloro-2-methoxyphenyl)-2-((3-(2-hydroxyethoxy)-5-methoxyphenyl)amino)-1-(6-methoxy-5-methyl-1H-indol-3-yl)ethanone] | – | – | 5.4 | 0.076 | –
COc1cc(NC(C(=O)c2c[nH]c3c(F)c(F)ccc23)c2ccc(Cl)cc2OC)cc(OCCO)c1 (racemic) [Compound 11, 2-(4-chloro-2-methoxyphenyl)-1-(6,7-difluoro-1H-indol-3-yl)-2-((3-(2-hydroxyethoxy)-5-methoxyphenyl)amino)ethanone] | 5.8 | 0.0031 | – | – | –
